# Experimental data taken from ChEMBL document CHEMBL3044593, “Design, synthesis and anticonvulsant evaluation of novel 8-substituted-4(3H)-quinazolines” (Med Chem Res, 2012).
# Activity calls are given as the source filed them. No cut-off for these calls is given here.
# Key:
# Mus musculus [1] = experiment: Anticonvulsant activity in Mus musculus (mouse) assessed as protection against maximal electroshock-induced seizures at 0.5 mmol/kg, ip administered 30 min prior to seizure induction measured for 60 min relative to control; format: functional
# Mus musculus [2] = experiment: Anticonvulsant activity in Mus musculus (mouse) assessed as protection against pentylenetetrazol-induced seizures at 0.5 mmol/kg, ip administered 30 min prior to seizure induction measured for 60 min relative to control; format: functional
# Mus musculus [3] = experiment: Anticonvulsant activity in Mus musculus (mouse) assessed as protection against strychnine-induced seizures at 0.5 mmol/kg, ip administered 30 min prior to seizure induction measured for 60 min relative to control; format: functional, organism-based
# Mus musculus [4] = experiment: Anticonvulsant activity in Mus musculus (mouse) assessed as protection against picrotoxin-induced seizures at 0.5 mmol/kg, ip administered 30 min prior to seizure induction measured for 60 min relative to control; format: functional, organism-based
# [5] = Therapeutic index, ratio of LD50 for ip dosed Mus musculus (mouse) to ED50 for protection against pentylenetetrazol-induced seizures in ip dosed mouse; format: organism-based; conditions: in vivo, read-out: Ratio LD50/ED50
# [6] = Toxicity in ip dosed Mus musculus (mouse) assessed as mortality; format: organism-based; conditions: in vivo
# Mus musculus [7] = experiment: Anticonvulsant activity in ip dosed Mus musculus (mouse) assessed as protection against pentylenetetrazol-induced seizures administered 30 min prior to seizure induction measured for 60 min; format: functional
# [8] = Acute neurotoxicity in ip dosed Mus musculus (mouse) assessed as motor impairment administered 30 min prior to testing measured for 30 secs by chimney test; format: toxicity, organism-based; conditions: in vivo
# Mus musculus [9] = experiment: Protective index, ratio of TD50 for ip dosed Mus musculus (mouse) to ED50 for protection against pentylenetetrazol-induced seizures in ip dosed mouse; format: functional
# Mus musculus [10] = experiment: Anticonvulsant activity in Mus musculus (mouse) assessed as protection against pentylenetetrazol-induced seizures at 1.5 mmol/kg, ip administered 30 min prior to seizure induction measured for 60 min relative to control; format: functional
# Mus musculus [11] = experiment: Anticonvulsant activity in Mus musculus (mouse) assessed as protection against maximal electroshock-induced seizures at 1.5 mmol/kg, ip administered 30 min prior to seizure induction measured for 60 min relative to control; format: functional
# Mus musculus [12] = experiment: Anticonvulsant activity in Mus musculus (mouse) assessed as protection against maximal electroshock-induced seizures at 1.4 mmol/kg, ip administered 30 min prior to seizure induction measured for 60 min relative to control; format: functional
# Mus musculus [13] = experiment: Anticonvulsant activity in Mus musculus (mouse) assessed as protection against pentylenetetrazol-induced seizures at 1.4 mmol/kg, ip administered 30 min prior to seizure induction measured for 60 min relative to control; format: functional
SMILES,Activity (Mus musculus [1]),Activity (Mus musculus [2]),Activity (Mus musculus [3]),Activity (Mus musculus [4]),selectivity ratio [5],LD50 [6],ED50 (Mus musculus [7]),TD50 at 0.5 min [8],Ratio TD50/ED50 (Mus musculus [9]),Activity (Mus musculus [10]),Activity (Mus musculus [11]),Activity (Mus musculus [12]),Activity (Mus musculus [13])
Cc1ccccc1-n1c(C)nc2c(OCC(=O)N/N=C\c3ccccc3F)cccc2c1=O,50%,66%,inactive,inactive,,,,,,,,,
Cc1ccccc1-n1c(C)nc2c(OCC(=O)NNC(N)=O)cccc2c1=O,0%,50%,inactive,inactive,,,,,,,,,
Cc1ccccc1-n1c(C)nc2c(OCC(=O)N/N=C\c3ccccc3)cccc2c1=O,0%,50%,inactive,inactive,,,,,,,,,
CCOC(=O)NNC(=O)COc1cccc2c(=O)n(-c3ccccc3C)c(C)nc12,100%,100%,inactive,inactive,1.51,1020 µmol/kg,390 µmol/kg,600 µmol/kg,,,,,
Cc1ccccc1-n1c(C)nc2c(OCC(=O)NCCO)cccc2c1=O,0%,50%,inactive,inactive,,,,,,,,,
CSC(=S)NNC(=O)COc1cccc2c(=O)n(-c3ccccc3C)c(C)nc12,100%,100%,inactive,inactive,3.34,1170 µmol/kg,350 µmol/kg,670 µmol/kg,,,,,
COc1ccccc1/C=N\NC(=O)COc1cccc2c(=O)n(-c3ccccc3C)c(C)nc12,0%,33%,inactive,inactive,,,,,,,,,
Cc1ccccc1-n1c(C)nc2c(OCC(=O)NN)cccc2c1=O,50%,100%,inactive,inactive,10.2,2960 µmol/kg,290 µmol/kg,790 µmol/kg,2.7,,,,
CCCC(CCC)C(=O)[O-].[Na+] [VALPROATE SODIUM],,,,,,11900 µmol/kg,4800 µmol/kg,9600 µmol/kg,,100%,100%,,
Cc1ccccc1-n1c(C)nc2ccccc2c1=O [METHAQUALONE],,,,,1.4,,1400 µmol/kg,1600 µmol/kg,,,,100%,100%
Cc1ccccc1-n1c(C)nc2c(OCC(=O)NNC(=S)NN)cccc2c1=O,33%,66%,inactive,inactive,,,,,,,,,
Cc1ccccc1-n1c(C)nc2c(OCC(=O)NNC(=O)NN)cccc2c1=O,0%,50%,inactive,inactive,,,,,,,,,
